Publication PMC3412176 (Journal of biological inorganic chemistry : JBIC : a …, 2012)

Molecular target: T1, S. oneidensis cytochrome c nitrite reductase (ccNiR, NrfA) (Shewanella oneidensis, UniProt Q8EAC7)
T1 sequence (Q8EAC7 28-467): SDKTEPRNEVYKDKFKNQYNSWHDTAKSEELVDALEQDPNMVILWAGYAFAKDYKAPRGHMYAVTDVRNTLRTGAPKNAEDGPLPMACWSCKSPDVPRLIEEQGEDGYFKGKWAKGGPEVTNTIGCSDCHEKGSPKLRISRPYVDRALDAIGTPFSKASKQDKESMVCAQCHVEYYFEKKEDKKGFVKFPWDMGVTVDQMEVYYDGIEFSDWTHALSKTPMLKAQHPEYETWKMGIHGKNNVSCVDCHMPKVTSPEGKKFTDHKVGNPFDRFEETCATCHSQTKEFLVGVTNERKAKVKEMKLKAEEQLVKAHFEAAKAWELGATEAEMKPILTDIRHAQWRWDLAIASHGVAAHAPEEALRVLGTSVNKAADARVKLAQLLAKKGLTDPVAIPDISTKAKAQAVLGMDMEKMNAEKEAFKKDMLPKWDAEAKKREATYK
Type: biochemical

- Ki: ~600 µM
SMILES: O=S(O)O [sulfite]
